For assay [1], the target named is T1, Protease (Human immunodeficiency virus 1, UniProt Q9YQ12). Briefly: Inhibition of wild type HIV1 protease by uncompetitive binding.
In assay [2] the target is T1, Protease. The experiment in a line: Inhibition of wild type HIV1 protease by competitive binding.

With `CC(C)CN(C[C@@H](O)[C@H](Cc1ccccc1)NC(=O)O[C@H]1CCOC1)S(=O)(=O)c1ccc(N)cc1`, the Ki on Protease [1] was determined as 28 nM; at Protease [2] it was 6.2 nM.
